Experimental data reported in US20250172566A1, “SACCHARIDE SENSING SYSTEMS” (CARBOMETRICS LIMITED, priority 2022, published 2025).

What was measured:
[1] = Fluorescent solution phase glucose responsive assay (pH 7.4, 298 K)
Method in brief: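 Glucose binding molecule and fluorescent inhibitor molecule mixed in defined media at pH 7.4 and 298 K unless stated; baseline emission recorded, then D-glucose added stepwise to set final concentrations, e.g. 10 mM. After equilibration, percent change in emission at Emmax versus baseline recorded.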

[2] = Fluorescence lifetime glucose responsive assay (10 mM PBS, pH 7.4, 298 K); settings: Ex 450 nm
[3] = Fluorescent hydrogel phase glucose responsive assay (10 mM PBS, pH 7.4, 310 K); settings: 20 mM D-glucose, Ex 480/Emmax 520 nm
[4] = 5 mM glucose, GBM15 20 uM, FIM 5 uM
[5] = 20 mM glucose, GBM15 20 uM, FIM 5 uM
[6] = 40 mM glucose, GBM15 20 uM, FIM 5 uM
[7] = GBM30 100 uM, FIM 10 uM, hydrogel H (amino azide dextran/PEG)
[8] = 5 mM D-glucose, GBM15 50 uM, FIM 5 uM, Ex 470/Emmax 520 nm, medium B (10 mM PBS)
[9] = 10 mM D-glucose, GBM15 50 uM, FIM 5 uM, Ex 470/Emmax 520 nm, medium B (10 mM PBS)
[10] = 20 mM D-glucose, GBM15 50 uM, FIM 5 uM, Ex 470/Emmax 520 nm, medium B (10 mM PBS)

CN1c2cc3c(cc2C(CS(=O)(=O)[O-])=CC1(C)C)C(c1ccc(C(=O)NCc2cn(CCOCCOCCOCCNC(=O)[C@H](Cc4cn(CCOCCOCCOCCOc5ccc(CCO[C@@H]6O[C@H](CO)[C@@H](O)[C@H](O)[C@H]6O)cc5)nn4)NC(=O)OC(C)(C)C)nn2)cc1C(=O)[O-])=c1cc2c(cc1O3)=[N+](C)C(C)(C)C=C2CS(=O)(=O)[O-].[Na+].[Na+] [FIM10]
Change in Emmax for FIM at a particular D-glucose concentration ([1]; 5 mM D-glucose, GBM42 20 uM, FIM 5 uM, Ex 560/Emmax 610 nm, medium B (10 mM PBS)): 65% | Change in Emmax for FIM at a particular D-glucose concentration ([1]; 10 mM D-glucose, GBM42 20 uM, FIM 5 uM, Ex 560/Emmax 610 nm, medium B (10 mM PBS)): 85% | Change in Emmax for FIM at a particular D-glucose concentration ([1]; 20 mM D-glucose, GBM42 20 uM, FIM 5 uM, Ex 560/Emmax 610 nm, medium B (10 mM PBS)): 105% | Change in Emmax for FIM at a particular D-glucose concentration ([1]; 40 mM D-glucose, GBM40 5 uM, FIM 10 uM, Ex 560/Emmax 610 nm, medium B (10 mM PBS)): −75% | Change in Emmax for FIM at a particular D-glucose concentration ([1]; 40 mM D-glucose, GBM42 20 uM, FIM 5 uM, Ex 560/Emmax 610 nm, medium B (10 mM PBS)): 110% | Fluorescence lifetime component τ1 for FIM and GBM at a particular glucose concentration ([2]; 20 mM glucose, GBM40 5 uM, FIM 10 uM): 580 ns | Lifetime component τ1 of FIM only ([2]; FIM 10 uM): 575 ns | Lifetime component τ1 of FIM after GBM addition ([2]; GBM40 5 uM, FIM 10 uM): 620 ns

CC(C)(C)OC(=O)NC(Cc1cn(CCCCC(C(=O)NCC(COC2OC(CO)C(O)C(O)C2O)c2ccccc2)[N+](C)(C)C)nn1)C(=O)NCCOCCOCCn1cc(-c2ccnc(-c3cc(-c4cn(CCOCCOc5cc(S(=O)(=O)[O-])c6ccc7c(S(=O)(=O)[O-])cc(S(=O)(=O)[O-])c8ccc5c6c87)nn4)ccn3)c2)nn1.[Ru+2].c1ccc(-c2ccccn2)nc1.c1ccc(-c2ccccn2)nc1 (stereo not shown) [FIM56]
Fluorescence lifetime component τ1 for FIM and GBM at a particular glucose concentration [2, 4]: 695 ns | Fluorescence lifetime component τ2 for FIM and GBM at a particular glucose concentration [2, 4]: 3040 ns | Fluorescence lifetime component τ1 for FIM and GBM at a particular glucose concentration [2, 5]: 660 ns | Fluorescence lifetime component τ2 for FIM and GBM at a particular glucose concentration [2, 5]: 3210 ns | Fluorescence lifetime component τ1 for FIM and GBM at a particular glucose concentration [2, 6]: 625 ns | Fluorescence lifetime component τ2 for FIM and GBM at a particular glucose concentration [2, 6]: 3260 ns | Lifetime component τ1 of FIM only ([2]; FIM 5 uM): 520 ns | Lifetime component τ2 of FIM only ([2]; FIM 5 uM): 3620 ns | Lifetime component τ1 of FIM after GBM addition ([2]; GBM15 20 uM, FIM 5 uM): 650 ns | Lifetime component τ2 of FIM after GBM addition ([2]; GBM15 20 uM, FIM 5 uM): 2500 ns

C[N+](C)(C)[C@@H](CCCCn1cc(C[C@H](NC(=O)OC[C@@H]2[C@@H]3CCC#CCC[C@@H]32)C(=O)NCCOCCOCCn2cc(CNC(=O)c3ccc4c(c3)C(=O)OC43c4ccc(N)c(S(=O)(=O)[O-])c4Oc4c3ccc(N)c4S(=O)(=O)O)nn2)nn1)C(=O)NCC(CO[C@@H]1O[C@H](CO)[C@@H](O)[C@H](O)[C@H]1O)c1ccccc1 (stereo partly shown) [FIM60]
Change in Emmax for FIM at a particular D-glucose concentration ([3]; GBM15 50 uM, FIM 50 uM, hydrogel G (amino dextran/PEG/PEG3-azide)): 50% | Change in Emmax for FIM at a particular D-glucose concentration [3, 7]: 40% | Change in Emmax for FIM at a particular D-glucose concentration ([1]; 5 mM D-glucose, GBM7 50 uM, FIM 5 uM, Ex 470/Emmax 520 nm, medium B (10 mM PBS)): 220% | Change in Emmax for FIM at a particular D-glucose concentration [1, 8]: 80% | Change in Emmax for FIM at a particular D-glucose concentration ([1]; 5 mM D-glucose, GBM30 50 uM, FIM 1 uM, Ex 470/Emmax 520 nm, medium B (10 mM PBS)): 120% | Change in Emmax for FIM at a particular D-glucose concentration ([1]; 5 mM D-glucose, GBM40 20 uM, FIM 5 uM, Ex 470/Emmax 520 nm, medium B (10 mM PBS)): 250% | Change in Emmax for FIM at a particular D-glucose concentration ([1]; 5 mM D-glucose, GBM40 20 uM, FIM 5 uM, Ex 470/Emmax 520 nm, medium C (human serum)): 250% | Change in Emmax for FIM at a particular D-glucose concentration ([1]; 5 mM D-glucose, GBM43 40 uM, FIM 5 uM, Ex 450/Emmax 520 nm, medium B (10 mM PBS)): 80% | Change in Emmax for FIM at a particular D-glucose concentration [1, 9]: 130% | Change in Emmax for FIM at a particular D-glucose concentration ([1]; 10 mM D-glucose, GBM30 50 uM, FIM 1 uM, Ex 470/Emmax 520 nm, medium B (10 mM PBS)): 170% | Change in Emmax for FIM at a particular D-glucose concentration ([1]; 10 mM D-glucose, GBM43 40 uM, FIM 5 uM, Ex 450/Emmax 520 nm, medium B (10 mM PBS)): 125% | Change in Emmax for FIM at a particular D-glucose concentration ([1]; 20 mM D-glucose, GBM7 50 uM, FIM 5 uM, Ex 470/Emmax 520 nm, medium B (10 mM PBS)): 310% | Change in Emmax for FIM at a particular D-glucose concentration [1, 10]: 200% | Change in Emmax for FIM at a particular D-glucose concentration ([1]; 20 mM D-glucose, GBM30 50 uM, FIM 1 uM, Ex 470/Emmax 520 nm, medium B (10 mM PBS)): 200% | Change in Emmax for FIM at a particular D-glucose concentration ([1]; 20 mM D-glucose, GBM40 20 uM, FIM 5 uM, Ex 470/Emmax 520 nm, medium B (10 mM PBS)): 450% | Change in Emmax for FIM at a particular D-glucose concentration ([1]; 20 mM D-glucose, GBM40 20 uM, FIM 5 uM, Ex 470/Emmax 520 nm, medium C (human serum)): 430% | Change in Emmax for FIM at a particular D-glucose concentration ([1]; 20 mM D-glucose, GBM43 40 uM, FIM 5 uM, Ex 450/Emmax 520 nm, medium B (10 mM PBS)): 165% | Change in Emmax for FIM at a particular D-glucose concentration ([1]; 40 mM D-glucose, GBM7 50 uM, FIM 5 uM, Ex 470/Emmax 520 nm, medium B (10 mM PBS)): 400% | Change in Emmax for FIM at a particular D-glucose concentration ([1]; 40 mM D-glucose, GBM15 50 uM, FIM 5 uM, Ex 470/Emmax 520 nm, medium B (10 mM PBS)): 220% | Change in Emmax for FIM at a particular D-glucose concentration ([1]; 40 mM D-glucose, GBM30 50 uM, FIM 1 uM, Ex 470/Emmax 520 nm, medium B (10 mM PBS)): 220% | Change in Emmax for FIM at a particular D-glucose concentration ([1]; 40 mM D-glucose, GBM43 40 uM, FIM 5 uM, Ex 450/Emmax 520 nm, medium B (10 mM PBS)): 200% | Change in Emmax for FIM at a particular D-glucose concentration ([1]; 80 mM D-glucose, GBM40 20 uM, FIM 5 uM, Ex 470/Emmax 520 nm, medium B (10 mM PBS)): 600% | Change in Emmax for FIM at a particular D-glucose concentration ([1]; 80 mM D-glucose, GBM40 20 uM, FIM 5 uM, Ex 470/Emmax 520 nm, medium C (human serum)): 500% | Change in Emmax for FIM at a particular D-glucose concentration ([1]; 80 mM D-glucose, GBM43 40 uM, FIM 5 uM, Ex 450/Emmax 520 nm, medium B (10 mM PBS)): 230%

C#CCCC(=O)N[C@@H](CCCCNC(=O)Cn1cc(CNC(=O)c2ccc3c(c2)C(=O)OC32c3ccc(O)cc3Oc3cc(O)ccc32)nn1)C(=O)NCCOCCOCCOCCOCc1cn(CCO[C@@H]2O[C@H](CO)[C@@H](O)[C@H](O)[C@H]2O)nn1 [FIM66]
Change in Emmax for FIM at a particular D-glucose concentration [3, 7]: 140% | Change in Emmax for FIM at a particular D-glucose concentration [1, 8]: 250% | Change in Emmax for FIM at a particular D-glucose concentration [1, 9]: 255% | Change in Emmax for FIM at a particular D-glucose concentration [1, 10]: 260%
